# Target: T1, Full-length, GST-tagged, human CaMKIIδ (Homo sapiens, UniProt Q13557)
# T1 construct: Full-Length, Glutathione-S-Transferase(GST)-Tagged, Human CaMKIIδ was purchased from Carna Biosciences; purchased Carna Biosciences 02-111
# Assay: CaMKIIδ binding assay (TR-FRET with BODIPY-labeled probe ligand)
# Details: CaMKIIδ binding assay, results of Table 2
# Method in brief: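 TR-FRET probe-displacement binding: 0.5 nM GST-CaMKIIδ with 10 μg/mL calmodulin, 1 mM CaCl2, 0.21 nM Tb-anti-GST Ab and 300 nM BODIPY probe in HEPES pH 7.6 buffer. Eight-point 4-fold dilutions, 1 hr at room temperature. IC50 from logistic fit; 100% inhibition defined by 3 μM parent compound.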
# T1 sequence (Q13557 1-478 isoform Q13557-12): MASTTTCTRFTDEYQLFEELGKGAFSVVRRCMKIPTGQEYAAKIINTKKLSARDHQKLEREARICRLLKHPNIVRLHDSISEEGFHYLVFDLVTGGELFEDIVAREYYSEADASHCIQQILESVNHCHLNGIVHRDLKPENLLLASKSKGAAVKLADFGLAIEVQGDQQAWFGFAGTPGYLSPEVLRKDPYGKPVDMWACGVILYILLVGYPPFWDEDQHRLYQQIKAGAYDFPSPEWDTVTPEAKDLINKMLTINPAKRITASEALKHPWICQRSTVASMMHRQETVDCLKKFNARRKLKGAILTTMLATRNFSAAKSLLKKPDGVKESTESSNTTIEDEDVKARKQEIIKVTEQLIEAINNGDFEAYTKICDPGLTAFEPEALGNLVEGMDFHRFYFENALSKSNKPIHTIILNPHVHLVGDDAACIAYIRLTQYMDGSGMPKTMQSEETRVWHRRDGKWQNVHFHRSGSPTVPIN
row,Structure (SMILES),IC50
1,"C[C@@H](Cn1cnnn1)Oc1cc(-c2cnc(Nc3cn(C4CCN(Cc5cccn5C)CC4)nc3C(F)(F)F)nc2)ccc1Cl [Example 566, (S)-5-(3-((1-(1H-tetrazol-1-yl)propan-2-yl)oxy)-4-chlorophenyl)-N-(1-(1-((1-methyl-1H-pyrrol-2-yl)methyl)piperidin-4-yl)-3-(trifluoromethyl)-1H-pyrazol-4-yl)pyrimidin-2-amine]",< 0.01 µM
2,"C[C@@H](Cn1cnnn1)Oc1cc(-c2cnc(Nc3cn(C4CCN(Cc5cnn(C)c5)CC4)nc3C(F)(F)F)nc2)ccc1Cl [Example 567, (S)-5-(3-((1-(1H-tetrazol-1-yl)propan-2-yl)oxy)-4-chlorophenyl)-N-(1-(1-((1-methyl-1H-pyrazol-4-yl)methyl)piperidin-4-yl)-3-(trifluoromethyl)-1H-pyrazol-4-yl)pyrimidin-2-amine]",< 0.01 µM
3,"COc1ccc(C(=O)N2CCN(C)CC2)cc1Nc1ncc(-c2ccc(Cl)c(O[C@@H](C)Cn3cnnn3)c2)cn1 [Example 569, (S)-(3-((5-(3-((1-(1H-tetrazol-1-yl)propan-2-yl)oxy)-4-chlorophenyl)pyrimidin-2-yl)amino)-4-methoxyphenyl) (4-methylpiperazin-1-yl)methanone]",< 0.01 µM
4,"COc1ccc(C(=O)N2C[C@@H](C)N[C@@H](C)C2)cc1Nc1ncc(-c2ccc(Cl)c(O[C@@H](C)Cn3cnnn3)c2)cn1 [Example 570, (3-((5-(3-(((S)-1-(1H-tetrazol-1-yl)propan-2-yl)oxy)-4-chlorophenyl)pyrimidin-2-yl)amino)-4-methoxyphenyl) (cis-3,5-dimethylpiperazin-1-yl)methanone]",< 0.01 µM
5,"C[C@@H](Cn1cnnn1)Oc1cc(-c2cnc(Nc3cn(CC4CCN(C(=O)OC(C)(C)C)C4)nc3C(F)(F)F)nc2)ccc1Cl (stereo partly drawn) [Example 571, tert-butyl 3-((4-((5-(3-(((S)-1-(1H-tetrazol-1-yl)propan-2-yl)oxy)-4-chlorophenyl)pyrimidin-2-yl)amino)-3-(trifluoromethyl)-1H-pyrazol-1-yl)methyl) pyrrolidine-1-carboxylate]",≥ 0.1 µM
6,"C[C@@H](Cn1cnnn1)Oc1cc(-c2cnc(Nc3cn(CC4CCNC4)nc3C(F)(F)F)nc2)ccc1Cl (stereo partly drawn) [Example 572, 5-(3-(((S)-1-(1H-tetrazol-1-yl)propan-2-yl)oxy)-4-chlorophenyl)-N-(1-(pyrrolidin-3-ylmethyl)-3-(trifluoromethyl)-1H-pyrazol-4-yl)pyrimidin-2-amine]",< 0.01 µM
7,"COc1ccc(C(=O)N2CCCN(C3COC3)CC2)cc1Nc1ncc(-c2ccc(Cl)c(O[C@@H](C)Cn3cnnn3)c2)cn1 [Example 573, (S)-(3-((5-(3-((1-(1H-tetrazol-1-yl)propan-2-yl)oxy)-4-chlorophenyl)pyrimidin-2-yl)amino)-4-methoxyphenyl) (4-(oxetan-3-yl)-1,4-diazepan-1-yl)methanone]",< 0.01 µM
8,"C[C@@H](Cn1cnnn1)Oc1cc(-c2cnc(Nc3cn(CC4CCN(C5COC5)C4)nc3C(F)(F)F)nc2)ccc1Cl (stereo partly drawn) [Example 574, 5-(3-(((S)-1-(1H-tetrazol-1-yl)propan-2-yl)oxy)-4-chlorophenyl)-N-(1-((1-(oxetan-3-yl)pyrrolidin-3-yl)methyl)-3-(trifluoromethyl)-1H-pyrazol-4-yl)pyrimidin-2-amine]",< 0.01 µM
9,"C[C@@H](Cn1cnnn1)Oc1cc(-c2cnc(Nc3cc(C4CCNCC4)c(F)cc3F)nc2)ccc1Cl [Example 575, (S)-5-(3-((1-(1H-tetrazol-1-yl)propan-2-yl)oxy)-4-chlorophenyl)-N-(2,4-difluoro-5-(piperidin-4-yl)phenyl)pyrimidin-2-amine]",< 0.01 µM
10,"COc1ccc(N2CCN(C3COC3)CC2)cc1Nc1ncc(-c2ccc(Cl)c(O[C@@H](C)Cn3cnnn3)c2)cn1 [Example 576, (S)-5-(3-((1-(1H-tetrazol-1-yl)propan-2-yl)oxy)-4-chlorophenyl)-N-(2-methoxy-5-(4-(oxetan-3-yl)piperazin-1-yl)phenyl)pyrimidin-2-amine]",0.01 to 0.1 µM
11,"C[C@@H](Cn1cnnn1)Oc1cc(-c2cnc(Nc3cc(C4CCN(C5COC5)CC4)ccc3OC(F)(F)F)nc2)ccc1Cl [Example 577, (S)-5-(3-((1-(1H-tetrazol-1-yl)propan-2-yl)oxy)-4-chlorophenyl)-N-(5-(1-(oxetan-3-yl)piperidin-4-yl)-2-(trifluoromethoxy)phenyl)pyrimidin-2-amine]",0.01 to 0.1 µM
12,"C[C@@H](Cn1cnnn1)Oc1cc(-c2cnc(Nc3cc(C4CCN(C5COC5)CC4)c(F)cc3F)nc2)ccc1Cl [Example 578, (S)-5-(3-((1-(1H-tetrazol-1-yl)propan-2-yl)oxy)-4-chlorophenyl)-N-(2,4-difluoro-5-(1-(oxetan-3-yl)piperidin-4-yl)phenyl)pyrimidin-2-amine]",0.01 to 0.1 µM
13,"COc1ccc(N2CCN(CC(N)=O)CC2)cc1Nc1ncc(-c2ccc(Cl)c(O[C@@H](C)Cn3cnnn3)c2)cn1 [Example 579, (S)-2-(4-(3-((5-(3-((1-(1H-tetrazol-1-yl)propan-2-yl)oxy)-4-chlorophenyl)pyrimidin-2-yl)amino)-4-methoxyphenyl)piperazin-1-yl)acetamide]",< 0.01 µM
14,"C[C@@H](Cn1cnnn1)Oc1cc(-c2cnc(Nc3cc(N4CCC(N5CCOCC5)CC4)ccc3F)nc2)ccc1Cl [Example 580, (S)-5-(3-((1-(1H-tetrazol-1-yl)propan-2-yl)oxy)-4-chlorophenyl)-N-(2-fluoro-5-(4-morpholinopiperidin-1-yl)phenyl)pyrimidin-2-amine]",< 0.01 µM
15,"C[C@@H](Cn1cnnn1)Oc1cc(-c2cnc(Nc3cc(N4CCC(N5CCOCC5)CC4)cnc3OCC(F)(F)F)nc2)ccc1Cl [Example 581, (S)-5-(3-((1-(1H-tetrazol-1-yl)propan-2-yl)oxy)-4-chlorophenyl)-N-(5-(4-morpholinopiperidin-1-yl)-2-(2,2,2-trifluoroethoxy)pyridin-3-yl)pyrimidin-2-amine]",< 0.01 µM
16,"COc1ccc(N2CCN(C3CCOCC3)CC2)cc1Nc1ncc(-c2ccc(Cl)c(O[C@@H](C)Cn3cnnn3)c2)cn1 [Example 582, (S)-5-(3-((1-(1H-tetrazol-1-yl)propan-2-yl)oxy)-4-chlorophenyl)-N-(2-methoxy-5-(4-(tetrahydro-2H-pyran-4-yl)piperazin-1-yl)phenyl)pyrimidin-2-amine]",< 0.01 µM

# Same assay, conditions: Table 2; activity class for CaMKIIδ
row,Structure (SMILES),IC50
1,"COc1ccc(N2CCN(C(=O)CN(C)C)CC2)cc1Nc1ncc(-c2ccc(Cl)c(O[C@@H](C)Cn3cnnn3)c2)cn1 [Example 583, (S)-1-(4-(3-((5-(3-((1-(1H-tetrazol-1-yl)propan-2-yl)oxy)-4-chlorophenyl)pyrimidin-2-yl)amino)-4-methoxyphenyl)piperazin-1-yl)-2-(dimethylamino)ethan-1-one]",< 0.01 µM
2,"COc1ccc(N2CCN(C)CC2)cc1Nc1ncc(-c2ccc(Cl)c(O[C@@H](C)Cn3cnnn3)c2)cn1 [Example 584, (S)-5-(3-((1-(1H-tetrazol-1-yl)propan-2-yl)oxy)-4-chlorophenyl)-N-(2-methoxy-5-(4-methylpiperazin-1-yl)phenyl)pyrimidin-2-amine]",< 0.01 µM
3,"COc1cc2c(cc1Nc1ncc(-c3ccc(C#N)c(O[C@@H](C)Cn4cnnn4)c3)cn1)N(C(=O)C(F)(F)F)CCC2 [Example 585, (S)-2-((1-(1H-tetrazol-1-yl)propan-2-yl)oxy)-4-(2-((6-methoxy-1-(2,2,2-trifluoroacetyl)-1,2,3,4-tetrahydroquinolin-7-yl)amino)pyrimidin-5-yl)benzonitrile]",0.01 to 0.1 µM
4,"COc1cc2c(cc1Nc1ncc(-c3ccc(Cl)c(O[C@@H](C)Cn4cnnn4)c3)cn1)N(C(=O)C(F)(F)F)CCC2 [Example 586, (S)-1-(7-((5-(3-((1-(1H-tetrazol-1-yl)propan-2-yl)oxy)-4-chlorophenyl)pyrimidin-2-yl)amino)-6-methoxy-3,4-dihydroquinolin-1(2H)-yl)-2,2,2-trifluoroethan-1-one]",≥ 0.1 µM
5,"CCOc1nn(C2CCN(C3CCOCC3)CC2)cc1Nc1ncc(-c2ccc(Cl)c(O[C@@H](C)Cn3cnnn3)c2)cn1 [Example 587, (S)-5-(3-((1-(1H-tetrazol-1-yl)propan-2-yl)oxy)-4-chlorophenyl)-N-(3-ethoxy-1-(1-(tetrahydro-2H-pyran-4-yl)piperidin-4-yl)-1H-pyrazol-4-yl)pyrimidin-2-amine]",< 0.01 µM
6,"COc1ccc(C(=O)N2CCCN(CCO)CC2)cc1Nc1ncc(-c2ccc(Cl)c(O[C@@H](C)Cn3cnnn3)c2)cn1 [Example 588, (S)-(3-((5-(3-((1-(1H-tetrazol-1-yl)propan-2-yl)oxy)-4-chlorophenyl)pyrimidin-2-yl)amino)-4-methoxyphenyl) (4-(2-hydroxyethyl)-1,4-diazepan-1-yl)methanone]",< 0.01 µM
7,"COc1ccc(C(=O)N2CCN(C3COC3)CC2)cc1Nc1ncc(-c2ccc(Cl)c(O[C@@H](C)Cn3cnnn3)c2)cn1 [Example 589, (S)-(3-((5-(3-((1-(1H-tetrazol-1-yl)propan-2-yl)oxy)-4-chlorophenyl)pyrimidin-2-yl)amino)-4-methoxyphenyl) (4-(oxetan-3-yl)piperazin-1-yl)methanone]",0.01 to 0.1 µM
8,"COc1cc2c(cc1Nc1ncc(-c3ccc(C#N)c(O[C@@H](C)Cn4cnnn4)c3)cn1)NCCC2 [Example 590, (S)-2-((1-(1H-tetrazol-1-yl)propan-2-yl)oxy)-4-(2-((6-methoxy-1,2,3,4-tetrahydroquinolin-7-yl)amino)pyrimidin-5-yl)benzonitrile]",< 0.01 µM
9,"COc1cc2c(cc1Nc1ncc(-c3ccc(Cl)c(O[C@@H](C)Cn4cnnn4)c3)cn1)NCCC2 [Example 591, (S)-N-(5-(3-((1-(1H-tetrazol-1-yl)propan-2-yl)oxy)-4-chlorophenyl)pyrimidin-2-yl)-6-methoxy-1,2,3,4-tetrahydroquinolin-7-amine]",< 0.01 µM

# Reference: patent publication US10543212B2, “Substituted amines for treating cardiac diseases” (Cardurion Pharmaceuticals, LLC, priority 2017, dated 2020)
